Data as given in PubChem BioAssay AID248 (DTP/NCI, 2004).
Toxic doses and inconclusive results are not listed. Rule as the data show it: active = T/C of 150% or more; inactive = T/C below 125%.

System: L1210 leukemia ip in BDF1 mice, survival T/C
Assay: NCI In Vivo Anticancer Drug Screen. Data for tumor model L1210 Leukemia (intraperitoneal) in B6D2F1 (BDF1) mice
Details: higher = longer survival
Method in brief: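 Mice bearing the transplanted tumor received compound or vehicle. Survival of the treated group was divided by that of the vehicle-treated control group to give the ratio.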

[1] = endpoint: mean survival time, dose: 100.0 mg/kg/injection, schedule: Q01DX009 (ip), vehicle: saline with Tween-80
[2] = endpoint: mean survival time, dose: 100.0 mg/kg/injection, schedule: Q04DX003 (ip), vehicle: saline with Tween-80
[3] = endpoint: mean survival time, dose: 200.0 mg/kg/injection, schedule: Q04DX003 (ip), vehicle: saline with Tween-80
[4] = endpoint: mean survival time, dose: 400.0 mg/kg/injection, schedule: Q04DX003 (ip), vehicle: saline with Tween-80
[5] = endpoint: mean survival time, dose: 100.0 mg/kg/injection, schedule: Q01DX001 (ip), vehicle: saline
[6] = endpoint: mean survival time, dose: 200.0 mg/kg/injection, schedule: Q01DX001 (ip), vehicle: saline
[7] = endpoint: mean survival time, dose: 400.0 mg/kg/injection, schedule: Q01DX001 (ip), vehicle: saline

Measured: T/C

Nc1ccn(CC(=O)c2ccc(Cl)s2)c(=O)n1
inactive: endpoint: mean survival time, dose: 100.0 mg/kg/injection, schedule: Q01DX009 (ip), vehicle: water 95 % of control | endpoint: mean survival time, dose: 100.0 mg/kg/injection, schedule: Q04DX003 (ip), vehicle: water 101 % of control | endpoint: mean survival time, dose: 200.0 mg/kg/injection, schedule: Q01DX009 (ip), vehicle: water 101 % of control | endpoint: mean survival time, dose: 200.0 mg/kg/injection, schedule: Q04DX003 (ip), vehicle: water 100 % of control | endpoint: mean survival time, dose: 400.0 mg/kg/injection, schedule: Q04DX003 (ip), vehicle: water 102 % of control

CNC(=O)NCCN(C)c1ccccc1
inactive: endpoint: mean survival time, dose: 100.0 mg/kg/injection, schedule: Q04DX002 (ip), vehicle: Klucel (hydroxypropylcellulose) (HPC) 92 % of control | endpoint: mean survival time, dose: 200.0 mg/kg/injection, schedule: Q04DX002 (ip), vehicle: Klucel (hydroxypropylcellulose) (HPC) 110 % of control | endpoint: mean survival time, dose: 400.0 mg/kg/injection, schedule: Q04DX002 (ip), vehicle: Klucel (hydroxypropylcellulose) (HPC) 106 % of control

COc1cc([C@@H]2c3cc4c(c(O)c3C[C@H]3COC(=O)[C@@H]32)OCO4)cc(OC)c1O
inactive: endpoint: mean survival time, dose: 0.06 mg/kg/injection, schedule: Q01DX Z (ip), vehicle: saline 100 % of control | endpoint: mean survival time, dose: 0.12 mg/kg/injection, schedule: Q01DX Z (ip), vehicle: saline 100 % of control | endpoint: mean survival time, dose: 0.2 mg/kg/injection, schedule: Q01DX001 (ip), vehicle: carboxymethylcellulose (CMC) 119 % of control | endpoint: mean survival time, dose: 0.25 mg/kg/injection, schedule: Q01DX Z (ip), vehicle: saline 100 % of control | endpoint: mean survival time, dose: 0.5 mg/kg/injection, schedule: Q01DX001 (ip), vehicle: carboxymethylcellulose (CMC) 107 % of control | endpoint: mean survival time, dose: 0.5 mg/kg/injection, schedule: Q01DX Z (ip), vehicle: saline 100 % of control | endpoint: mean survival time, dose: 1.0 mg/kg/injection, schedule: Q01DX001 (ip), vehicle: carboxymethylcellulose (CMC) 107 % of control | endpoint: mean survival time, dose: 2.0 mg/kg/injection, schedule: Q01DX001 (ip), vehicle: carboxymethylcellulose (CMC) 111 % of control | endpoint: mean survival time, dose: 3.6 mg/kg/injection, schedule: Q01DX001 (ip), vehicle: carboxymethylcellulose (CMC) 103 % of control | endpoint: mean survival time, dose: 4.0 mg/kg/injection, schedule: Q01DX001 (ip), vehicle: carboxymethylcellulose (CMC) 119 % of control | endpoint: mean survival time, dose: 5.3 mg/kg/injection, schedule: Q01DX001 (ip), vehicle: carboxymethylcellulose (CMC) 108 % of control | endpoint: mean survival time, dose: 8.0 mg/kg/injection, schedule: Q01DX001 (ip), vehicle: carboxymethylcellulose (CMC) 113 % of control | endpoint: median survival time, dose: 0.06 mg/kg/injection, schedule: Q01DX009 (ip), vehicle: Klucel (hydroxypropylcellulose) (HPC) 100 % of control | endpoint: median survival time, dose: 0.12 mg/kg/injection, schedule: Q01DX009 (ip), vehicle: Klucel (hydroxypropylcellulose) (HPC) 100 % of control | endpoint: median survival time, dose: 0.25 mg/kg/injection, schedule: Q01DX009 (ip), vehicle: Klucel (hydroxypropylcellulose) (HPC) 100 % of control | endpoint: median survival time, dose: 0.5 mg/kg/injection, schedule: Q01DX009 (ip), vehicle: Klucel (hydroxypropylcellulose) (HPC) 111 % of control

O=C(Nc1cccc(C2=NCCN2)c1)c1cccc2c(C(=O)Nc3cccc(C4=NCCN4)c3)cccc12
inactive: endpoint: mean survival time, dose: 15.0 mg/kg/injection, schedule: Q01DX Z (ip), vehicle: carboxymethylcellulose (CMC) 86 % of control

O=C(O)C(O)(c1ccccc1)C(O)c1ccccc1 (stereo not drawn)
inactive: [1] 113 % of control | [2] 100 % of control | endpoint: mean survival time, dose: 200.0 mg/kg/injection, schedule: Q01DX009 (ip), vehicle: saline with Tween-80 97 % of control | [3] 100 % of control | endpoint: mean survival time, dose: 400.0 mg/kg/injection, schedule: Q01DX009 (ip), vehicle: saline with Tween-80 98 % of control | [4] 95 % of control

COc1cc2c(c(OC)c1OC)-c1cc3c(cc1[C@@H](OC(C)=O)[C@@H]1COC(=O)[C@H]1C2)OCO3
inactive: endpoint: mean survival time, dose: 6.22 mg/kg/injection, schedule: Q01DX009 (ip), vehicle: saline + alcohol 89 % of control | endpoint: mean survival time, dose: 9.33 mg/kg/injection, schedule: Q01DX009 (ip), vehicle: saline + alcohol 94 % of control | endpoint: mean survival time, dose: 14.0 mg/kg/injection, schedule: Q01DX009 (ip), vehicle: saline + alcohol 107 % of control | endpoint: mean survival time, dose: 21.0 mg/kg/injection, schedule: Q01DX009 (ip), vehicle: saline + alcohol 105 % of control

CCCCCCCCC(=O)NCc1ccc(OC)cc1
inactive: endpoint: mean survival time, dose: 25.0 mg/kg/injection, schedule: Q01DX009 (ip), vehicle: other 93 % of control | endpoint: mean survival time, dose: 50.0 mg/kg/injection, schedule: Q01DX009 (ip), vehicle: other 90 % of control | endpoint: mean survival time, dose: 100.0 mg/kg/injection, schedule: Q01DX009 (ip), vehicle: other 100 % of control | endpoint: mean survival time, dose: 100.0 mg/kg/injection, schedule: Q04DX003 (ip), vehicle: other 95 % of control | endpoint: mean survival time, dose: 200.0 mg/kg/injection, schedule: Q01DX009 (ip), vehicle: other 92 % of control | endpoint: mean survival time, dose: 200.0 mg/kg/injection, schedule: Q04DX003 (ip), vehicle: other 90 % of control | endpoint: mean survival time, dose: 400.0 mg/kg/injection, schedule: Q01DX009 (ip), vehicle: other 91 % of control | endpoint: mean survival time, dose: 400.0 mg/kg/injection, schedule: Q04DX003 (ip), vehicle: other 88 % of control

CCCOc1ccc(C)cc1
inactive: [5] 93 % of control | [6] 108 % of control

COc1ccc2c(c1)Cc1c-2nc2ccccc2c1Cl
inactive: endpoint: mean survival time, dose: 50.0 mg/kg/injection, schedule: Q01DX001 (ip), vehicle: saline 101 % of control | [5] 93 % of control | [6] 96 % of control | [7] 100 % of control

CCCCCCSCCO
inactive: [5] 94 % of control | [6] 94 % of control | [7] 93 % of control

COc1cc2ccc(CC3NCCc4cc5c(cc43)OCO5)cc2cc1OC (stereo not drawn)
inactive: endpoint: mean survival time, dose: 100.0 mg/kg/injection, schedule: Q01DX009 (ip), vehicle: saline sonified 93 % of control | endpoint: mean survival time, dose: 100.0 mg/kg/injection, schedule: Q04DX003 (ip), vehicle: saline sonified 88 % of control | endpoint: mean survival time, dose: 200.0 mg/kg/injection, schedule: Q01DX009 (ip), vehicle: saline sonified 98 % of control | endpoint: mean survival time, dose: 200.0 mg/kg/injection, schedule: Q04DX003 (ip), vehicle: saline sonified 88 % of control | endpoint: mean survival time, dose: 400.0 mg/kg/injection, schedule: Q01DX009 (ip), vehicle: saline sonified 93 % of control | endpoint: mean survival time, dose: 400.0 mg/kg/injection, schedule: Q04DX003 (ip), vehicle: saline sonified 95 % of control

CC(O)C1OC1C(C)O (stereo not drawn)
inactive: endpoint: mean survival time, dose: 25.0 mg/kg/injection, schedule: Q04DX002 (ip), vehicle: saline 93 % of control | endpoint: mean survival time, dose: 50.0 mg/kg/injection, schedule: Q04DX002 (ip), vehicle: saline 101 % of control | endpoint: mean survival time, dose: 100.0 mg/kg/injection, schedule: Q04DX002 (ip), vehicle: saline 112 % of control

CN(C)C(=O)Nc1cccc(OC(=O)NC2CCCCCCC2)c1
inactive: [2] 91 % of control | [3] 100 % of control | [4] 96 % of control

O=c1oc(-c2ccccc2Cl)nc2cc(Cl)ccc12
inactive: endpoint: mean survival time, dose: 50.0 mg/kg/injection, schedule: Q01DX009 (ip), vehicle: saline with Tween-80 96 % of control | [1] 100 % of control

CC(/C=C/C(O)=C1/C(=O)CNC1=O)=C\[C@@H](C)[C@H]1O[C@@]2(C)O[C@H](C(=O)[C@@H]3O[C@@]32C)[C@@H]1C
inactive: endpoint: mean survival time, dose: 25.0 mg/kg/injection, schedule: Q01DX009 (ip), vehicle: saline 94 % of control | endpoint: mean survival time, dose: 50.0 mg/kg/injection, schedule: Q01DX009 (ip), vehicle: saline 100 % of control | endpoint: mean survival time, dose: 100.0 mg/kg/injection, schedule: Q01DX001 (ip), vehicle: acetone 89 % of control | endpoint: mean survival time, dose: 100.0 mg/kg/injection, schedule: Q01DX009 (ip), vehicle: saline 93 % of control | endpoint: mean survival time, dose: 100.0 mg/kg/injection, schedule: Q04DX003 (ip), vehicle: acetone 87 % of control | endpoint: mean survival time, dose: 200.0 mg/kg/injection, schedule: Q01DX001 (ip), vehicle: acetone 89 % of control | endpoint: mean survival time, dose: 400.0 mg/kg/injection, schedule: Q01DX001 (ip), vehicle: acetone 96 % of control

CCS(=O)(=O)C(CCC(C)C)CCC(C)C
inactive: endpoint: mean survival time, dose: 100.0 mg/kg/injection, schedule: Q01DX001 (ip), vehicle: carboxymethylcellulose (CMC) 102 % of control | endpoint: mean survival time, dose: 200.0 mg/kg/injection, schedule: Q01DX001 (ip), vehicle: carboxymethylcellulose (CMC) 109 % of control | endpoint: mean survival time, dose: 400.0 mg/kg/injection, schedule: Q01DX001 (ip), vehicle: carboxymethylcellulose (CMC) 104 % of control

COc1ccc(Br)cc1CCCO
inactive: [2] 94 % of control | [3] 92 % of control | [4] 95 % of control

CC(=O)Nc1nc(C)c(CCCN(c2ccccc2)S(=O)(=O)c2ccc(N)cc2)c(=O)[nH]1
inactive: endpoint: mean survival time, dose: 200.0 mg/kg/injection, schedule: Q01DX001 (ip), vehicle: Klucel (hydroxypropylcellulose) (HPC) 88 % of control

CC1=NOC(=O)C12CC2
inactive: endpoint: mean survival time, dose: 75.0 mg/kg/injection, schedule: Q01DX001 (ip), vehicle: saline 100 % of control | endpoint: mean survival time, dose: 150.0 mg/kg/injection, schedule: Q01DX001 (ip), vehicle: saline 100 % of control | endpoint: mean survival time, dose: 300.0 mg/kg/injection, schedule: Q01DX001 (ip), vehicle: saline 103 % of control
